Test results published in ChEMBL document CHEMBL3046771, “Synthesis, spectral, and antimicrobial evaluation of some new 8-membered phosphorus heterocyclic compounds” (2011).

Legend:
Assay type in all cases: functional
Escherichia coli [1] = test: Antibacterial activity against Escherichia coli at 100 ppm by disk diffusion method; parameters: unit not given here
Staphylococcus aureus [2] = test: Antibacterial activity against Staphylococcus aureus at 50 ppm by disk diffusion method
Aspergillus niger [3] = test: Antifungal activity against Aspergillus niger at 100 ppm by disk diffusion method; parameters: unit not given here
Staphylococcus aureus [4] = test: Antibacterial activity against Staphylococcus aureus at 25 ppm by disk diffusion method; parameters: unit not given here
Escherichia coli [5] = test: Antibacterial activity against Escherichia coli at 25 ppm by disk diffusion method; parameters: unit not given here
Helminthosporium [6] = test: Antifungal activity against Helminthosporium oryzae at 25 ppm by disc diffusion method; parameters: unit not given here
Aspergillus niger [7] = test: Antifungal activity against Aspergillus niger at 25 ppm by disk diffusion method; parameters: unit not given here
Aspergillus niger [8] = test: Antifungal activity against Aspergillus niger at 50 ppm by disk diffusion method; parameters: unit not given here
Helminthosporium [9] = test: Antifungal activity against Helminthosporium oryzae at 100 ppm by disc diffusion method; parameters: unit not given here
Escherichia coli [10] = test: Antibacterial activity against Escherichia coli at 50 ppm by disk diffusion method; parameters: unit not given here
Staphylococcus aureus [11] = test: Antibacterial activity against Staphylococcus aureus at 100 ppm by disk diffusion method; parameters: unit not given here
Helminthosporium [12] = test: Antifungal activity against Helminthosporium oryzae at 50 ppm by disc diffusion method; parameters: unit not given here

Row | SMILES | inhibition zone (IZ) (Escherichia coli [1]) | inhibition zone (IZ) (Staphylococcus aureus [2]) [%] | inhibition zone (IZ) (Aspergillus niger [3]) | inhibition zone (IZ) (Staphylococcus aureus [4]) | inhibition zone (IZ) (Escherichia coli [5]) | inhibition zone (IZ) (Helminthosporium [6]) | inhibition zone (IZ) (Aspergillus niger [7]) | inhibition zone (IZ) (Aspergillus niger [8]) | inhibition zone (IZ) (Helminthosporium [9]) | inhibition zone (IZ) (Escherichia coli [10]) | inhibition zone (IZ) (Staphylococcus aureus [11]) | inhibition zone (IZ) (Helminthosporium [12])
1 | CCC(C)OCP1(=[Se])CNc2cccc3cccc(c23)NC1 (centres undefined) | 13 | 10 | 13 | 7 | 8 | 7 | 8 | 10 | 14 | 10 | 14 | 10
2 | CCC(C)OCP1(=S)CNc2cccc3cccc(c23)NC1 (centres undefined) | 14 | 12 | 14 | 8 | 9 | 8 | 9 | 10 | 13 | 10 | 13 | 12
3 | CCC(CO)NCP1(=S)CNc2cccc3cccc(c23)NC1 (centres undefined) | 10 | 9 | 10 | 5 | 8 | 5 | 8 | 10 | 11 | 10 | 11 | 9
4 | [Se]=P1(CBr)CNc2cccc3cccc(c23)NC1 | 12 | 8 | 10 | – | 4 | – | 4 | 6 | 9 | 6 | 9 | 8
5 | CC(NCP1(=S)CNc2cccc3cccc(c23)NC1)c1ccccc1 (centres undefined) | 11 | 7 | 9 | 8 | 6 | 8 | 6 | 7 | 12 | 7 | 12 | 7
6 | CC(Cc1ccccc1)OCP1(=S)CNc2cccc3cccc(c23)NC1 (centres undefined) | 8 | 9 | 13 | 7 | 8 | 7 | 8 | 9 | 10 | 9 | 10 | 9
7 | CC(Cc1ccccc1)OCP1(=[Se])CNc2cccc3cccc(c23)NC1 (centres undefined) | 10 | 10 | 10 | 7 | 7 | 7 | 7 | 8 | 12 | 8 | 12 | 10
8 | S=P1(CBr)CNc2cccc3cccc(c23)NC1 | 10 | 11 | 9 | 9 | 3 | 9 | 3 | 5 | 13 | 5 | 13 | 11
9 | CCC(CO)NCP1(=[Se])CNc2cccc3cccc(c23)NC1 (centres undefined) | 19 | 6 | 9 | 8 | 7 | 6 | 4 | 6 | 10 | 6 | 10 | 9
10 | CC1(C)S[C@@H]2[C@H](NC(=O)Cc3ccccc3)C(=O)N2[C@H]1C(=O)O [PENICILLIN G] | – | 8 | – | – | – | – | – | – | – | – | – | –
11 | CC(NCP1(=[Se])CNc2cccc3cccc(c23)NC1)c1ccccc1 (centres undefined) | 10 | 9 | 12 | 5 | 3 | 5 | 6 | 9 | 9 | 5 | 11 | 8
